# Assay results taken from patent publication US12274684B2, “Treatment of vasculopathy with prostacyclin and mesenchymal stem cells” (United Therapeutics Corporation, priority 2013, dated 2025).
# Where “and” joins values, the source holds several entries; their conditions need not be identical. Identical values can stand only once.
# Test system: human bone marrow MSC
# Test: Microarray gene expression analysis of MSC (Illumina Human HT12 Expression BeadChip)
# Type: cell-based
# Conditions: Tre(+) 250 μg/mL, 24 h
# Protocol: Human bone marrow MSC were expanded and seeded into six (6) T225 flasks using standard growth medium (Table 1). At 95-99% confluency, cells were thoroughly washed with PBS. Three (3) flasks were replenished with basal media containing 250 μg/mL treprostinil, (+)Tre, and the remaining three (3) flasks were replenished with unsupplemented basal media, (−)Tre. After 24 hours of culture, representative images were captured from (+) Tre and (−) Tre cultures. Conditioned media was collected from each replicate, divided into two samples of appropriate volumes, and analyzed separately for: 1) secreted proteins (Myriad RBM InflammationMAP® 1.0) and 2) exosome RNA content. Cells were lysed directly from culture flasks, processed for total RNA isolation, and analyzed for gene expression by microarray (Illumina Human HT12 Expression BeadChip). Microarray gene expression analysis was also performed on MSC from cultures without (−) or with (+) 250 ug/mL treprostinil. Three (3) biological replicates from each condition were analyzed. Of the 77,612 sequences identified among all replicates, only 24,273 were detected above the arbitrary background of 50 counts. 2,984 RNA sequences were unique to Tre(−) cultures, while 1,781 RNA sequences were unique to Tre(+) cultures (panel A). Genes detected in both conditions were further analyzed for differential expression (panel). […] Genes that are expressed only in Tre(−) cultures (that is to say, completely turned off in the Tre(+) cultures) are shown in Table 5.
compound,measurement,setting,value
CCCCC[C@H](O)CC[C@@H]1[C@H]2Cc3cccc(OCC(=O)O)c3C[C@H]2C[C@H]1O [treprostinil],"SLC14A1 (NM_015865) expression, Rep 1-3 (Table 4)",,95 counts and 102 counts and 67 counts
same,"SLC16A6 (NM_004694) expression, Rep 1-3",,975 counts and 1342 counts and 784 counts
same,"SREBF1 (NM_004176) expression, Rep 1-3",,1709 counts and 1842 counts and 1577 counts
same,"ST6GALNAC6 (NM_013443) expression, Rep 1-3",,424 counts and 651 counts and 445 counts
same,"TRH (NM_007117) expression, Rep 1-3",,419 counts and 697 counts and 428 counts
same,"VEGFA (NM_001025370) expression, Rep 1-3",,4761 counts and 6614 counts and 4293 counts
same,"VEGFA (NM_001171626) expression, Rep 1-3",,6586 counts and 9874 counts and 6349 counts
same,"GDNF (NM_199231) expression, AVG",Tre(−) AVG 0,751 counts
same,"HAS1 (NM_001523) expression, AVG, second entry",Tre(−) AVG 0,958 counts
same,"ST6GALNAC6 (NM_013443) expression, AVG",Tre(−) AVG 2,506 counts
same,"ANGPTL4 (NM_139314) expression, AVG",Tre(−) AVG 4,1759 counts
same,"ATP6V0D2 (NM_152565) expression, AVG",Tre(−) AVG 10,646 counts
same,"SLC16A6 (NM_004694) expression, AVG",Tre(−) AVG 10,1034 counts
same,"TRH (NM_007117) expression, AVG",Tre(−) AVG 11,515 counts
same,"PDE4B (NM_001037339) expression, AVG",Tre(−) AVG 14,1196 counts
same,"NGFR (NM_002507) expression, AVG",Tre(−) AVG 16,1370 counts
same,"PDE4D (NM_001197222) expression, AVG",Tre(−) AVG 16,1677 counts
same,"SLC4A2 (NM_001199693) expression, AVG",Tre(−) AVG 16,524 counts
same,"HAS1 (NM_001523) expression, AVG, first entry",Tre(−) AVG 23,1728 counts
same,"ATF3 (NM_001030287) expression, AVG",Tre(−) AVG 26,1207 counts
same,"KYNU (NM_003937) expression, AVG",Tre(−) AVG 27,862 counts
same,"PDK4 (NM_002612) expression, AVG",Tre(−) AVG 33,1399 counts
same,"PDE4D (NM_001197221) expression, AVG",Tre(−) AVG 36,1124 counts
same,"STC1 (NM_003155) expression, AVG",Tre(−) AVG 36,1584 counts
same,"ATF3 (NM_001674) expression, AVG",Tre(−) AVG 37,676 counts
same,"BMP6 (NM_001718) expression, AVG",Tre(−) AVG 39,1324 counts
same,"KTN1 (NM_001079522) expression, AVG",Tre(−) AVG 40,579 counts
same,"SEC31A (NM_001077207) expression, AVG",Tre(−) AVG 40,732 counts
same,"PLOD2 (NM_000935) expression, AVG",Tre(−) AVG 42,1258 counts
same,"GDNF (NM_000514) expression, AVG",Tre(−) AVG 43,786 counts
same,"PTGS2 (NM_000963) expression, AVG",Tre(−) AVG 46,10888 counts
same,"PAQR5 (NM_017705) expression, AVG",Tre(−) AVG 48,704 counts
same,"IL11 (NM_000641) expression, AVG",Tre(−) AVG 50,929 counts
same,"SCG2 (NM_003469) expression, AVG",Tre(−) AVG 51,1090 counts
same,"PITPNC1 (NM_181671) expression, AVG",Tre(−) AVG 52,824 counts
same,"IGFBP1 (NM_000596) expression, AVG",Tre(−) AVG 53,6304 counts
same,"SLC6A15 (NM_182767) expression, AVG",Tre(−) AVG 54,1277 counts
same,"HSD11B1 (NM_005525) expression, AVG",Tre(−) AVG 55,849 counts
same,"NR4A2 (NM_006186) expression, AVG",Tre(−) AVG 55,679 counts
same,"PTP4A1 (NM_003463) expression, AVG",Tre(−) AVG 58,685 counts
same,"SIK1 (NM_173354) expression, AVG",Tre(−) AVG 58,1183 counts
same,"IL6 (NM_000600) expression, AVG",Tre(−) AVG 63,6859 counts
same,"SMOX (NM_175840) expression, AVG",Tre(−) AVG 77,955 counts
same,"PALLD (NM_001166110) expression, AVG",Tre(−) AVG 78,1033 counts
same,"DUSP1 (NM_004417) expression, AVG",Tre(−) AVG 85,1092 counts
same,"SAT1 (transcript variant 2, non-coding RNA) expression, AVG",Tre(−) AVG 89,1208 counts
same,"PRKAG2 (NM_024429) expression, AVG",Tre(−) AVG 91,7155 counts
same,"LIPG (NM_006033) expression, AVG",Tre(−) AVG 129,1702 counts
same,"IER3 (NM_003897) expression, AVG",Tre(−) AVG 132,2974 counts
same,"SREBF1 (NM_004176) expression, AVG",Tre(−) AVG 148,1709 counts
same,"IDH1 (NM_005896) expression, AVG",Tre(−) AVG 155,2039 counts
same,"C11orf96 (NM_001145033) expression, AVG",Tre(−) AVG 176,2105 counts
same,"CD55 (NM_001114752) expression, AVG",Tre(−) AVG 202,2663 counts
same,"GPRC5A (NM_003979) expression, AVG",Tre(−) AVG 355,4684 counts
same,"CD55 (NM_000574) expression, AVG",Tre(−) AVG 359,7712 counts
same,"VEGFA (NM_001025370) expression, AVG",Tre(−) AVG 386,5223 counts
same,"GDF15 (NM_004864) expression, AVG",Tre(−) AVG 421,13505 counts
same,"TIAM2 (NM_012454) expression, AVG",Tre(−) AVG 504,20 counts
same,"KIAA0930 (NM_015264) expression, AVG",Tre(−) AVG 511,48 counts
same,"CALD1 (NM_033140) expression, AVG",Tre(−) AVG 523,0 counts
same,"MBNL1 (NM_207297) expression, AVG",Tre(−) AVG 526,46 counts
same,"NAP1L3 (NM_004538) expression, AVG",Tre(−) AVG 538,48 counts
